{
  "source": "paper PMC11651915",
  "about": "“Small molecule protein assembly modulators with pan-cancer therapeutic efficacy” (Open Biology, 2024)",
  "key": {"MDA-MB-435": {"tested_on": "MDA-MB-435", "assay": "cells", "format": "cell-based", "settings": "Homo sapiens, NCI-60, 48 h"}, "Hennes 20 cells [1]": {"tested_on": "Hennes 20 cells", "assay": "High density/low density 'arrest of proliferation' assay", "format": "cell-based, Chinese hamster", "settings": "Hennes 20, 72 h, AlamarBlue"}, "HCT-116": {"tested_on": "HCT-116", "assay": "cells", "format": "cell-based", "settings": "Homo sapiens, NCI-60, 48 h"}, "NCI-H322M": {"tested_on": "NCI-H322M", "assay": "cells", "settings": "Homo sapiens, 48 h"}, "MeWo": {"tested_on": "MeWo", "assay": "Eurofins OncoPanel (CellTiter-Glo)", "settings": "Homo sapiens, 72 h"}, "SF-268": {"tested_on": "SF-268", "assay": "cells", "settings": "Homo sapiens, SF-268, 48 h"}, "OVCAR-4": {"tested_on": "OVCAR-4", "assay": "cells", "settings": "Homo sapiens, OVCAR-4, 48 h"}, "K-562": {"tested_on": "K-562", "assay": "cells", "format": "cell-based", "settings": "Homo sapiens, K562, NCI-60, 48 h"}, "Hennes 20 cells [2]": {"tested_on": "Hennes 20 cells", "assay": "Cell growth recovery assay", "format": "cell-based, Chinese hamster", "settings": "PAV-617 0.3 µM 24 h, PAV-951 0.4 µM 6 h, followed to day 14", "procedure": "To confirm that the inhibition observed in low-density Hennes 20 cells resulted from temporary arrest of proliferation and not cell death, compound was removed after a period of treatment and cell growth was measured over the subsequent two weeks for recovery potential. Once compound was removed, following a period of recovery, cell proliferation was restored over time for both chemotypes (see figure 1f,g). By day 11, cell density in compound-treated cells had caught up to that in the DMSO-treated cells (see figure 1f,g).\nA 96-well plate was seeded with either Hennes 20 or LNCaP C-33 cells at 500 cells per well in 90 µl of minimum essential media and incubated at 37°C for 24 h. 0.5% DMSO was diluted in media and added to six control wells for each plate. PAV-617 was diluted in media and added to three wells at a concentration of 0.3 µM. PAV-951 was diluted in media and added to concentration of 0.4 µM. After 24 h of PAV-617 treatment or 6 h of PAV-951 treatment, the medium containing compound was removed and replaced with fresh media. After 72 h (day 5), plates were assayed with AlamarBlue and fluorescence was read at 530/590. The medium containing AlamarBlue was removed and replaced with fresh media. After another 72 h (day 8) plates were assayed with AlamarBlue and fluorescence again, then medium containing AlamarBlue was removed and replaced with fresh media. […]"}, "NCI-H522": {"tested_on": "NCI-H522", "assay": "cells", "settings": "Homo sapiens, NCI-H522, 48 h"}, "OVCAR-8": {"tested_on": "OVCAR-8", "assay": "cells", "settings": "Homo sapiens, OVCAR-8, 48 h"}},
  "data": [
    {"smiles": "CC(C)CCNc1ncnc2cc(N3CCN(c4ccc5c(NCCC(C)C)ncnc5c4)CC3)ccc12", "note": "[PAV-951]", "values": [
      {"measurement": "GI50", "setting": "MDA-MB-435", "value": 0.273, "unit": "µM"},
      {"measurement": "inhibitory effect at low (500 cells per well) versus high (15 000 cells per well) density", "setting": "Hennes 20 cells [1]", "value": "difference between their inhibitory effects on low and high density-plated Hennes 20 cells"},
      {"measurement": "GI50", "setting": "HCT-116", "value": 0.185, "unit": "µM"},
      {"measurement": "GI50", "setting": "NCI-H322M", "value": 1.2, "unit": "µM"},
      {"measurement": "CC50", "setting": "NCI-H322M; read-out: LC50", "value": 5.55, "unit": "µM"},
      {"measurement": "IC50", "setting": "MeWo", "value": 1.18, "unit": "µM"},
      {"measurement": "GI50", "setting": "SF-268", "value": 0.217, "unit": "µM"},
      {"measurement": "CC50", "setting": "SF-268; read-out: LC50", "value": 2.01, "unit": "µM"},
      {"measurement": "GI50", "setting": "OVCAR-4", "value": 0.452, "unit": "µM"},
      {"measurement": "CC50", "setting": "OVCAR-4; read-out: LC50", "value": 4.56, "unit": "µM"},
      {"measurement": "GI50", "setting": "K-562", "value": 0.131, "unit": "µM"},
      {"measurement": "recovery of cell growth after removal of compound", "setting": "Hennes 20 cells [2]", "value": "recovered over time"},
      {"measurement": "GI50", "setting": "NCI-H522", "value": 1.77, "unit": "µM"},
      {"measurement": "CC50", "setting": "NCI-H522; read-out: LC50", "value": 6.95, "unit": "µM"},
      {"measurement": "GI50", "setting": "OVCAR-8", "value": 0.521, "unit": "µM"},
      {"measurement": "CC50", "setting": "OVCAR-8; read-out: LC50", "value": 5.18, "unit": "µM"}
    ]}
  ]
}
